Data on 7 molecules can be found in patent US20250163488A1, “CONJUGATION METHOD INVOLVING A TRANSGLUTAMINASE AT THE FC REGION COMPRISING A TRIMMED N-GLYCAN” (ADC THERAPEUTICS SA, priority 2022, published 2025).

The assay has as its target T1, MTGase (Streptomyces mobaraensis, UniProt P81453).
T1 sequence (P81453 77-407): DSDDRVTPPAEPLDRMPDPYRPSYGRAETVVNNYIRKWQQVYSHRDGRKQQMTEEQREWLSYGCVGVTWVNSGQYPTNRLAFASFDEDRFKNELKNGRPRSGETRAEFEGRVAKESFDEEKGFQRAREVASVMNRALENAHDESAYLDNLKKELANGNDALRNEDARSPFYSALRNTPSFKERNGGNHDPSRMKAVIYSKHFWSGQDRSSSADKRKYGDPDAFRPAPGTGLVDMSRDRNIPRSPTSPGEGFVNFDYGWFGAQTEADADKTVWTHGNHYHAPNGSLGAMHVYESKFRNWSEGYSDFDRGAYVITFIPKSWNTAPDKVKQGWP
In words: MTGase mediated conjugation of linkers to deglycosylated/trimmed antibody X, efficiency by LC-MS. The class given is biochemical. Also on record: Efficiency of MTGase mediated conjugation, PNGase F Process: tested at 200 eq. The following applies: linker 200 eq., 37° C., 18 h; for Efficiency of MTGase mediated conjugation, EndoS Process: antibody X glycan trimmed with EndoS; for Efficiency of MTGase mediated conjugation, PNGase F Process: antibody X deglycosylated with PNGase F. As for the experimental part:
Antibody X (2.5 mg) was degylcosylated using PNGase F (379 KU) at an antibody concentration of 1.33 mg/mL, the digest was incubated at 37° C. for 18 h. Deglycosylated antibody X was purified by protein A chromatography followed by buffer exchange into PBS and concentration by UF/DF.
Antibody X (2.5 mg) glycans were trimmed using EndoS (12.5 μg) at an antibody concentration of 1.0 mg/mL, the digest was incubated at 37° C. for 18 h. Trimmed antibody X was purified by protein A chromatography followed by buffer exchange into PBS and concentration by UF/DF.
Solutions of linkers 1-4, 7, 8 & 11 (Table 1) were prepared in PBS. Degylcosylated/trimmed antibody X samples (0.1 mg, 2 mg/mL) were next functionalized with linkers 1-4, 7, 8 & 11 (200 eq.) via MTGase mediated conjugation using 6.7 U of enzyme per mg of antibody. The resulting reactions were incubated at 37° C. for 18 h. Functionalized antibody X samples were purified by protein A chromatography followed by buffer exchange into PBS and concentration via UF/DF. The efficiency of conjugation for the purified samples was determined by LC-MS (Table 2).

As for `[N-]=[N+]=NCCOCCOCCOCCNC(=O)c1ccc(C(=O)NN)cc1` [Compound 7, 4-hydrazidobenzamide-PEG(4u)-azide], the “Efficiency of MTGase mediated conjugation, EndoS Process” value (“Efficiency … EndoS Process” below) stood at 100%. Consider `[N-]=[N+]=NCCOCCOCCOCCNC(=O)c1ccc(NN)cc1` [Compound 8, 4-hydrazinobenzamide-PEG(4u)-azide], for which the “Efficiency of MTGase mediated conjugation, PNGase F Process” value (“Efficiency … PNGase F Process” for short) is on record as 91% and the “Efficiency … EndoS Process” value was found to be 84%.

Regarding `[N-]=[N+]=NCCOCCOCCOCCNC(=O)c1ccc(CC(=O)NN)cc1` [Compound 11, 4-hydrazidomethylbenzamide-PEG(4u)-azide], the “Efficiency … EndoS Process” value amounted to 100%. Take amine-PEG(3u)-azide [Compound 1]: the “Efficiency … PNGase F Process” value was found to be 100% and the “Efficiency … EndoS Process” value was 100%. Consider aminooxy-PEG(3u)-azide [Compound 2], for which the “Efficiency … PNGase F Process” value worked out at 95% and the “Efficiency … EndoS Process” value came out at 84%.

hydrazido-PEG(4u)-azide [Compound 3]: the “Efficiency … PNGase F Process” value is reported as 98% and the “Efficiency … EndoS Process” value came to 97%. On the same counts, the results for hydrazino-PEG(4u)-azide [Compound 4] are 89% and 86%.
